According to article PMC7766132, “N-Terminal Tagging with GFP Enhances Selectivity of Agitoxin 2 to Kv1.3-Channel Binding Site” (Toxins, 2020):

Key:
[1] = tested on: KcsA-Kv1.6; assay: Competitive displacement of AgTx2-L3-GFP from KcsA-Kv1.6 on spheroplasts; type: binding; conditions: AgTx2-L3-GFP 20 nM; Figure 4
[2] = tested on: KcsA-Kv1.3; assay: Competitive displacement of AgTx2-L3-GFP from KcsA-Kv1.3 on spheroplasts; type: binding; conditions: AgTx2-L3-GFP 20 nM; Figure 4
[3] = tested on: KcsA-Kv1.3; assay: Competitive displacement of GFP-L2-AgTx2 from KcsA-Kv1.3 on spheroplasts; type: binding; conditions: for Displacement of GFP-L2-AgTx2 from complexes with KcsA-Kv1.3 (in words) / Concentration range of competition with GFP-L2-AgTx2 for KcsA-Kv1.3: GFP-L2-AgTx2 20 nM; for Displacement of GFP-L2-AgTx2 from complexes with KcsA-Kv1.3 (in words) / Kd: 2 h, 37 °C; for Displacement of GFP-L2-AgTx2 from complexes with KcsA-Kv1.3 (in words): Figure 2D; for Kd: fluorescent ligand GFP-L2-AgTx2 20 nM, Kap = IC50/(1 + [L]/[Kd]), mean ± SEM, n = 3, read-out: Apparent dissociation constant Kap of peptide blocker – Kv1.3-binding site complexes; for Concentration range of competition with GFP-L2-AgTx2 for KcsA-Kv1.3: titration, Figure 3E
[4] = tested on: Kv1.6; conditions: cited from earlier work
Text: (§1) AgTx2 was successfully used in the form of a fluorescently labeled peptide (either RFP-AgTx2, or AgTx2 chemically labeled with tetramethylrhodamine, R-AgTx2) to probe binding affinities of various peptide toxins to different Kv1 channels. Extending color variety of AgTx2-based FP-Tx, we report here on the design of GFP-tagged AgTx2. Ability of GFP-tagged AgTx2 to interact with the pore blocker bi ... || To clarify the structural basis of the advanced selectivity of GFP-L2-AgTx2, a homologous GFP-L1-AgTx2 ligand was produced, in which the 45-aminoacid L1 linker was used instead of the L2 linker (Figure 1A). […] Fusion of AgTx2 with GFP was performed using the 20-aa glycine-rich L3 linker, whose sequence was similar to the L2 linker.

[5] = tested on: Kv1.1; conditions: cited from earlier work
Text: as §1

[6] = target: KcsA-Kv1.3; assay: Competitive displacement of His6-GFP-L2-AgTx2 from KcsA-Kv1.3 on spheroplasts; type: binding; conditions: for Kd: fluorescent ligand His6-GFP-L2-AgTx2 20 nM, 2 h, 37 °C, Kap = IC50/(1 + [L]/[Kd]), mean ± SEM, n = 3, read-out: Apparent dissociation constant Kap of peptide blocker – Kv1.3-binding site complexes; for Concentration range of competition with His6-GFP-L2-AgTx2 for KcsA-Kv1.3: titration, His6-GFP-L2-AgTx2 20 nM, Figure 3F
[7] = tested on: Kv1.2; conditions: cited from earlier work
Text: Several fluorescently labeled peptide toxins were produced by chemical synthesis using reactive fluorescent organic dyes. The procedures are usually laborious, and the yields of the labeled products are often low. As an alternative, genetically encoded fluorescent protein-scorpion toxin chimeras (FP-Tx), which are the polypeptide ligands of potassium voltage-gated Kv1-channels were recently developed. […] AgTx2 was successfully used in the form of a fluorescently labeled peptide (either RFP-AgTx2, or AgTx2 chemically labeled with tetramethylrhodamine, R-AgTx2) to probe binding affinities of various peptide toxins to different Kv1 channels. Extending color variety of AgTx2-based FP-Tx, we report here on the design of GFP-tagged AgTx2. Ability of GFP-tagged AgTx2 to interact with the pore blocker bi ...

[8] = tested on: Kv1.3; conditions: cited from earlier work
Text: AgTx2 was successfully used in the form of a fluorescently labeled peptide (either RFP-AgTx2, or AgTx2 chemically labeled with tetramethylrhodamine, R-AgTx2) to probe binding affinities of various peptide toxins to different Kv1 channels. Extending color variety of AgTx2-based FP-Tx, we report here on the design of GFP-tagged AgTx2. Ability of GFP-tagged AgTx2 to interact with the pore blocker bi ... || To verify specificity of GFP-L2-AgTx2 interaction with the Kv1.3 binding site on the surface of KcsA-Kv1.3-presenting spheroplasts, we have studied the effect of well-known potassium channel peptide blockers on this interaction (Figure 2D). […] Scillato ... || To clarify the structural basis of the advanced selectivity of GFP-L2-AgTx2, a homologous GFP-L1-AgTx2 ligand was produced, in which the 45-aminoacid L1 linker was used instead of the L2 linker (Figure 1A).

[9] = tested on: KcsA-Kv1.1; assay: Competitive displacement of AgTx2-L3-GFP from KcsA-Kv1.1 on spheroplasts; type: binding; conditions: AgTx2-L3-GFP 20 nM; Figure 4
[10] = tested on: mKate2-hKv1.3-del; assay: Competitive displacement of GFP-L2-AgTx2 from mKate2-hKv1.3-del on HEK293 cells; type: cell-based, human; conditions: GFP-L2-AgTx2 40 nM, AgTx2 400 nM, 40 min
Text: KCNA3 gene encoding human Kv1.3 (hKv1.3, Accession number NP_002223.3) was a generous gift from Dr. A. Vassilevski. The gene was amplified using primers KCNA3-del-f1 and KCNA3-r1 (Table 2) to obtain KCNA3-del gene encoding N-terminally truncated protein, in which residues M1 through D52 were deleted. The truncated gene was inserted into BglII/HindIII sites of pmKate2-C plasmid (Evrogen, Moscow, Russia) to obtain the resulting plasmid pmKate2-KCNA3-del, which was further used for transfection of HEK293T cells. In the hybrid protein, mKate2-hKv1.3-del, mKate2 was linked to the N-terminus of the hKv1.3-del channel through the 9-aa flexible linker. […]
HEK 293 cells (from the collection of the Institute of Cytology RAS) were grown (37 °C, 5% CO2) in DMEM/F12 (Paneco, Russia) containing 5% fetal bovine serum (FBS, HyClone, Utah, USA) and 2 mM L-glutamine. […] Competitive binding was assessed by incubating cells with GFP-L2-AgTx2 (40 nM) and AgTx2 (400 nM) for 40 min. […]
Experiments with HEK293 cells were performed with a laser scanning confocal microscope Leica-SP2 (Leica Microsystems GmbH, Wetzlar, Germany). […] Fluorescence of GFP-tagged AgTx2 was excited at the 488 nm wavelength and recorded in the 495–535 nm range. Fluorescence of mKate2-hKv1.3 was excited at the 561 nm wavelength and recorded in the 650–700 nm range.

[11] = tested on: KCa2.3; conditions: known pharmacology, no reference given; cited from earlier work
[12] = tested on: mKate2-hKv1.3-del; conditions: transient expression; cited from earlier work
Text: In the following experiments we have verified, if AgTx2-L2-GFP, His6-AgTx2-L2-GFP and GFP-L1-AgTx2 can be used as fluorescent probes of Kv1.3 channels on the membrane of eukaryotic cells. Recently, we have designed a plasmid that encoded the fluorescently labeled human Kv1.3 channel (mKate2-hKv1.3-del) with enhanced presentation on the membrane of eukaryotic cells. […] Previously, the ...

Compound | Displacement of AgTx2-L3-GFP from complexes with KcsA-Kv1.6 (in words) [1] | Displacement of AgTx2-L3-GFP from complexes with KcsA-Kv1.3 (in words) [2] | Displacement of GFP-L2-AgTx2 from complexes with KcsA-Kv1.3 (in words) [3] | Kd [3] [pM] | Concentration range of competition with GFP-L2-AgTx2 for KcsA-Kv1.3 [3] | Affinity to Kv1.6 (in words) [4] | Affinity to Kv1.1 (in words) [5] | Kd [6] [pM] | Concentration range of competition with His6-GFP-L2-AgTx2 for KcsA-Kv1.3 [6] | Affinity to Kv1.2 (in words) [7] | Affinity to Kv1.3 (in words) [8] | Selectivity for Kv1.3 over Kv1.1 and Kv1.6 channels [8] | Displacement of AgTx2-L3-GFP from complexes with KcsA-Kv1.1 (in words) [9] | Displacement of GFP-L2-AgTx2 from mKate2-hKv1.3-del at the cell membrane (in words) [10] | Affinity to Kv1.3 channels (in words) [8] | Interaction with Kv1.3 channel (in words) ([8]; known pharmacology, no reference given) | Pore block of KCa2.3 channel (in words) [11] | Binding to mKate2-hKv1.3-del in eukaryotic cells (in words) [12]
CC[C@H](C)[C@@H]1NC(=O)[C@@H]2CSSC[C@@H]3NC(=O)[C@H](CCCCN)NC(=O)[C@H](CCCNC(=N)N)NC(=O)[C@H](CC(N)=O)NC(=O)[C@H](CCSC)NC(=O)[C@H](CSSC[C@H](NC(=O)[C@H](CO)NC(=O)[C@@H](NC(=O)[C@H](CC(N)=O)NC(=O)[C@@H](NC(=O)[C@@H]4CCCN4C(=O)[C@@H](NC(=O)CN)C(C)C)[C@@H](C)CC)C(C)C)C(=O)N[C@@H]([C@@H](C)O)C(=O)NCC(=O)N[C@@H](CO)C(=O)N4CCC[C@H]4C(=O)N[C@@H](CCC(N)=O)C(=O)N2)NC(=O)[C@H](CCCCN)NC(=O)CNC(=O)[C@H](Cc2ccccc2)NC(=O)[C@H](CCCNC(=N)N)NC(=O)[C@H](CCSC)NC(=O)CNC(=O)[C@H](C)NC(=O)[C@H](CC(=O)O)NC(=O)[C@H](CCCCN)NC(=O)[C@H](CSSC[C@@H](C(=O)N[C@H](C(=O)N2CCC[C@H]2C(=O)N[C@@H](CCCCN)C(=O)O)[C@@H](C)O)NC(=O)[C@H](Cc2c[nH]cn2)NC3=O)NC(=O)[C@@H]2CCCN2C(=O)[C@H](CCCCN)NC1=O [AgTx2, agitoxin 2] | readily displaced | readily displaced | low nanomolar | 230 ± 50 | nanomolar concentration range | sub-nanomolar affinity | sub-nanomolar affinity | 70 ± 4 | nanomolar concentration range | nanomolar affinity | sub-nanomolar affinity | ca. tenfold | readily displaced | displaced totally | – | – | – | –
CC[C@H](C)[C@H](NC(=O)[C@H](CCC(=O)O)NC(=O)[C@@H](NC(=O)CN)C(C)C)C(=O)N[C@@H](CC(N)=O)C(=O)N[C@H](C(=O)N[C@@H](CCCCN)C(=O)N[C@H]1CSSC[C@@H]2NC(=O)[C@H](CCCCN)NC(=O)CNC(=O)[C@H](Cc3ccccc3)NC(=O)[C@H](CCCNC(=N)N)NC(=O)[C@H](CCSC)NC(=O)CNC(=O)[C@H](C)NC(=O)[C@H](CC(=O)O)NC(=O)[C@H](CCCCN)NC(=O)[C@@H]3CSSC[C@@H](C(=O)N[C@H](C(=O)N4CCC[C@H]4C(=O)N[C@@H](CCCCN)C(=O)O)[C@@H](C)O)NC(=O)[C@H](Cc4c[nH]cn4)NC(=O)[C@H](CSSC[C@H](NC(=O)[C@H](CCC(N)=O)NC(=O)[C@@H]4CCCN4C(=O)[C@H](CO)NC(=O)CNC(=O)[C@H](CO)NC1=O)C(=O)N[C@@H](CC(C)C)C(=O)N[C@@H](CCCCN)C(=O)N1CCC[C@H]1C(=O)N3)NC(=O)[C@H](CCCCN)NC(=O)[C@H](CCCNC(=N)N)NC(=O)[C@H](CC(N)=O)NC(=O)[C@H](CCSC)NC2=O)C(C)C [KTx1, kaliotoxin 1] | readily displaced | readily displaced | low nanomolar | 100 ± 40 | nanomolar concentration range | – | – | 71 ± 7 | nanomolar concentration range | – | – | – | readily displaced | – | – | – | – | –
Hetlaxin [HeTx] | – | – | low micromolar concentrations | 39000 | higher concentrations | – | – | 45000 | higher concentrations | – | – | – | – | – | moderate-affinity ligand | – | – | –
Scillatoxin [ScTx] | did not compete | did not compete | did not affect GFP-L2-AgTx2 binding to KcsA-Kv1.3 | – | – | – | – | – | – | – | – | – | did not compete | – | – | no ability to interact with Kv1.3 channel | pore blocker of KCa2.3 channel | –
hongotoxin 1 | – | – | – | – | – | – | – | – | – | – | – | – | – | – | – | – | – | bind specifically
